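Five compound concentrations were applied to cells in 96-well plates for 48 hours; endpoints were derived by simple linear interpolation of the resulting dose-response curve. TGI denotes the concentration required for complete inhibition of growth.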
Assays:
Assay in all cases: DTP human tumour cell line panel, 48 h
[1] = test system: 786-0 renal
[2] = test system: A498 renal
[3] = test system: A549 NSCLC
[4] = test system: ACHN renal
[5] = test system: CAKI-1 renal
[6] = test system: CCRF-CEM leukemia
[7] = test system: COLO 205 colon
[8] = test system: DLD-1 colon
[9] = test system: DMS 114 small cell lung
[10] = test system: DMS 273 small cell lung
[11] = test system: EKVX NSCLC
[12] = test system: HCC-2998 colon
[13] = test system: HCT-116 colon
[14] = test system: HCT-15 colon
[15] = test system: HL-60(TB) leukemia
[16] = test system: HOP-62 NSCLC
[17] = test system: HOP-92 NSCLC
[18] = test system: HT29 colon
[19] = test system: IGROV1 ovarian
[20] = test system: K-562 leukemia
[21] = test system: KM12 colon
[22] = test system: KM20L2 colon
[23] = test system: LOX IMVI melanoma
[24] = test system: LXFL 529 NSCLC
[25] = test system: M14 melanoma
[26] = test system: M19-MEL melanoma
[27] = test system: MALME-3M melanoma
[28] = test system: MOLT-4 leukemia
[29] = test system: NCI-H226 lung
[30] = test system: NCI-H23 lung
[31] = test system: NCI-H460 lung
[32] = test system: NCI-H522 lung
[33] = test system: OVCAR-3 ovarian
[34] = test system: OVCAR-5 ovarian
[35] = test system: OVCAR-8 ovarian
[36] = test system: RPMI-8226 leukemia
[37] = test system: RXF 393 renal
[38] = test system: SF-268 CNS
[39] = test system: SF-295 CNS
[40] = test system: SF-539 CNS
[41] = test system: SK-MEL-2 melanoma
[42] = test system: SK-MEL-28 melanoma
[43] = test system: SK-MEL-5 melanoma
[44] = test system: SK-OV-3 ovarian
[45] = test system: SN12C renal
[46] = test system: SNB-19 CNS
[47] = test system: SNB-78 CNS
[48] = test system: SR leukemia
[49] = test system: SW-620 colon
[50] = test system: TK-10 renal
[51] = test system: U251 CNS
[52] = test system: UACC-62 melanoma
[53] = test system: XF 498 CNS

`COC(=O)n1c(C[P+](c2ccccc2)(c2ccccc2)c2ccccc2)cc2ccccc21` gave a TGI [1] of 12.8 µM, a TGI [2] of 22.7 µM and a TGI [3] of 12.4 µM. It also gave a TGI [4] of 14.9 µM, a TGI [5] of 7.15 µM and a TGI [6] of 21.1 µM. It also gave a TGI [7] of 2.92 µM, a TGI [8] of 11.4 µM and a TGI [9] of 9.29 µM. The TGI [10] was 6.25 µM, the TGI [11] was 11.1 µM and the TGI [12] was 10.3 µM. For the same compound, the TGI [13] was 11 µM, the TGI [14] was 34.2 µM and the TGI [15] was 6.12 µM. The TGI [16] was 4.57 µM, the TGI [17] was 3.34 µM and the TGI [18] was 11.8 µM. The TGI [19] was 12 µM, the TGI [20] was 16.2 µM and the TGI [21] was 3.94 µM. The TGI [22] was 10.7 µM, the TGI [23] was 11.5 µM and the TGI [24] was 3.73 µM. For the same compound, the TGI [25] was 7.37 µM, the TGI [26] was 13.1 µM and the TGI [27] was 17.1 µM. It also gave a TGI [28] of 17.8 µM, a TGI [29] of 5.95 µM and a TGI [30] of 7.77 µM. The TGI [31] was 12.2 µM, the TGI [32] was 6.34 µM and the TGI [33] was 11.2 µM. The TGI [34] was 8.66 µM, the TGI [35] was 10.4 µM and the TGI [36] was 14.7 µM. It also gave a TGI [37] of 14.4 µM, a TGI [38] of 16.1 µM and a TGI [39] of 5.9 µM. It also gave a TGI [40] of 14.7 µM, a TGI [41] of 4.97 µM and a TGI [42] of 15.7 µM. For the same compound, the TGI [43] was 3.93 µM, the TGI [44] was 3.59 µM and the TGI [45] was 11.7 µM. The TGI [46] was 10.8 µM, the TGI [47] was 17.9 µM and the TGI [48] was 25 µM. It also gave a TGI [49] of 13.1 µM, a TGI [50] of 9.12 µM and a TGI [51] of 17.5 µM. For the same compound, the TGI [52] was 16.3 µM and the TGI [53] was 6.09 µM.

From PubChem BioAssay (NCI)
